# Measured values from patent publication US20240239790A1, “7-Morpholino-1,6-Naphthyridin-5-yl Derivatives and Pharmaceutical Compositions Thereof Useful as DNA-PK Inhibitor” (adMare Therapeutics Society, priority 2021, published 2024).
# Columns and labels:
# [1] = target: T1, DNA-PK phosphorylation at Serine 2056 (Homo sapiens, UniProt P78527); assay: Cellular Assay for Inhibition of DNA-PK Phosphorylation at Serine 2056 in FaDu cells (sandwich ELISA, neocarzinostatin); format: cell-based; settings: pSer2056 DNA-PK, neocarzinostatin 1 μg/mL, Table 1
# T1 construct: FaDu cells were purchased from ATCC; host or cells: FaDu
# Procedure, shortened: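 FaDu cells pre-treated with compound (0.3% DMSO) for 1 h, then neocarzinostatin 1 μg/mL final added for 2 h to induce DSBs. Protein-normalised lysates read by sandwich ELISA for total and pSer2056 DNA-PK; % inhibition normalised between DMSO and NCS controls, IC50 from variable-slope log(inhibitor) fit.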
# [2] = target: T2, DNA-PK (Homo sapiens, UniProt P78527); assay: DNA-PK Assay for Biochemical Enzymatic Inhibition (ADP Glo Kinase assay); settings: DNA-PK enzyme, Table 1
# T2 construct: purchased Invitrogen PR9107A
# Procedure, shortened: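 Human DNA-PK (25 ng) preincubated 15 min with compounds (ten three-fold dilutions) in HEPES pH 7.5, MgCl2, KCl, calf thymus DNA buffer, then substrate 434.4 μM and ATP 64.4 μM (final) for 60 min at room temperature. ADP-Glo luminescence; percent inhibition fitted by four-parameter regression for IC50.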
SMILES,IC50 [1] [nM],IC50 [2] [nM]
"CS(=O)(=O)NC(=O)c1cnc2cc(N3CCOCC3)nc(O[C@H]3CC[C@@H](n4ccnc4)CC3)c2c1 [Compound 175, 5-(((1s,4s)-4-(1H-imidazol-1-yl)cyclohexyl)oxy)-N-(methylsulfonyl)-7-morpholino-1,6-naphthyridine-3-carboxamide]",10000 to 30000,0.5 to 1
"O=S(=O)(CC(F)F)Nc1cnc2cc(N3CCOCC3)nc(O[C@H]3CC[C@@H](Nc4ncccn4)CC3)c2c1 [Compound 193, 2,2-difluoro-N-(7-morpholino-5-(((1s,4s)-4-(pyrimidin-2-ylamino)cyclohexyl)oxy)-1,6-naphthyridin-3-yl)ethane-1-sulfonamide]",100 to 1000,0.5 to 1
"CN(C)CCOc1cnc(N[C@H]2CC[C@@H](Oc3nc(N4CCOCC4)cc4ncccc34)CC2)nc1 [Compound 64, 5-(2-(Dimethylamino)ethoxy)-N-((1s,4s)-4-((7-morpholino-1,6-naphthyridin-5-yl)oxy)cyclohexyl)pyrimidin-2-amine]",100 to 1000,< 0.5
"CS(=O)(=O)c1cnc2cc(N3CCOCC3)nc(O[C@H]3CC[C@@H](Nc4ncc(OCC(=O)N5CCOCC5)cn4)CC3)c2c1 [Compound 204a, 2-((2-(((1s,4s)-4-((3-(methylsulfonyl)-7-morpholino-1,6-naphthyridin-5-yl)oxy)cyclohexyl)amino)pyrimidin-5-yl)oxy)-1-morpholinoethan-1-one]",100 to 1000,1 to 10
"CN(C)C(=O)COc1cnc(N[C@H]2CC[C@@H](Oc3nc(N4CCOCC4)cc4ncc(NS(C)(=O)=O)cc34)CC2)nc1 [Compound 182, N,N-dimethyl-2-((2-(((1s,4s)-4-((3-(methylsulfonamido)-7-morpholino-1,6-naphthyridin-5-yl)oxy)cyclohexyl)amino)pyrimidin-5-yl)oxy)acetamide]",100 to 1000,< 0.5
"O=C(NO)c1cnc2cc(N3CCOCC3)nc(O[C@H]3CC[C@@H](n4ccnc4)CC3)c2c1 [Compound 172, 5-(((1s,4s)-4-(1H-imidazol-1-yl)cyclohexyl)oxy)-N-hydroxy-7-morpholino-1,6-naphthyridine-3-carboxamide]",1000 to 10000,< 0.5
"O=C(COc1cnc(N[C@H]2CC[C@@H](Oc3nc(N4CCOCC4)cc4ncccc34)CC2)nc1)N1CCNCC1 [Compound 63, 2-((2-(((1s,4s)-4-((7-Morpholino-1,6-naphthyridin-5-yl)oxy)cyclohexyl)amino)pyrimidin-5-yl)oxy)-1-(piperazin-1-yl)ethan-1-one]",< 100,< 0.5
"CS(=O)(=O)c1cnc2cc(N3CCOCC3)nc(O[C@H]3CC[C@@H](NC(=O)c4ncco4)CC3)c2c1 [Compound 204c, N-((1s,4s)-4-((3-(methylsulfonyl)-7-morpholino-1,6-naphthyridin-5-yl)oxy)cyclohexyl)oxazole-2-carboxamide]",< 100,1 to 10
"CS(=O)(=O)c1cnc2cc(N3CCOCC3)nc(O[C@H]3CC[C@@H](Nc4ncccn4)CC3)c2c1 [Compound 200b, N-((1s,4s)-4-((3-(methylsulfonyl)-7-morpholino-1,6-naphthyridin-5-yl)oxy)cyclohexyl)pyrimidin-2-amine]",100 to 1000,< 0.5

# The remaining lines, values ahead:
IC50 [1] [nM],IC50 [2] [nM],SMILES
< 100,0.5 to 1,CC(=O)NCCOc1cnc(N[C@H]2CC[C@@H](Oc3nc(N4CCOCC4)cc4ncccc34)CC2)nc1 [Compound 66]
< 100,< 0.5,"CNC(=O)COc1cnc(N[C@H]2CC[C@@H](Oc3nc(N4CCOCC4)cc4ncccc34)CC2)nc1 [Compound 71, N-Methyl-2-((2-(((1s,4s)-4-((7-morpholino-1,6-naphthyridin-5-yl)oxy)cyclohexyl)amino)pyrimidin-5-yl)oxy)acetamide]"
< 100,< 0.5,"NCCOc1cnc(N[C@H]2CC[C@@H](Oc3nc(N4CCOCC4)cc4ncccc34)CC2)nc1 [Compound 65, 5-(2-Aminoethoxy)-N-((1s,4s)-4-((7-morpholino-1,6-naphthyridin-5-yl)oxy)cyclohexyl)pyrimidin-2-amine]"
< 100,< 0.5,"Cn1c(=O)n(C2CCOCC2)c2nc(N[C@H]3CC[C@@H](Oc4nc(N5CCOCC5)cc5ncccc45)CC3)ncc21 [Compound 96, 7-Methyl-2-(((1s,4s)-4-((7-morpholino-1,6-naphthyridin-5-yl)oxy)cyclohexyl)amino)-9-(tetrahydro-2H-pyran-4-yl)-7,9-dihydro-8H-purin-8-one]"
< 100,< 0.5,"O=C(Cn1c(=O)n(C2CCOCC2)c2nc(N[C@H]3CC[C@@H](Oc4nc(N5CCOCC5)cc5ncccc45)CC3)ncc21)N1CCC1 [Compound 99, 7-(2-(Azetidin-1-yl)-2-oxoethyl)-2-(((1s,4s)-4-((7-morpholino-1,6-naphthyridin-5-yl)oxy)cyclohexyl)amino)-9-(tetrahydro-2H-pyran-4-yl)-7,9-dihydro-8H-purin-8-one]"
< 100,< 0.5,"CN(C)C(=O)Cn1ccc(C(=O)N[C@H]2CC[C@@H](Oc3nc(N4CCOCC4)cc4ncccc34)CC2)c1 [Compound 141, 1-(2-(dimethylamino)-2-oxoethyl)-N-((1s,4s)-4-((7-morpholino-1,6-naphthyridin-5-yl)oxy)cyclohexyl)-1H-pyrrole-3-carboxamide]"
< 100,< 0.5,"CN1CCN(CCOc2cnc(N[C@H]3CC[C@@H](Oc4nc(N5CCOCC5)cc5ncccc45)CC3)nc2)CC1 [Compound 69, 5-(2-(4-Methylpiperazin-1-yl)ethoxy)-N-((1s,4s)-4-((7-morpholino-1,6-naphthyridin-5-yl)oxy)cyclohexyl)pyrimidin-2-amine]"
< 100,< 0.5,"CN(C)C(=O)Cn1c(=O)n(C)c2nc(N[C@H]3CC[C@@H](Oc4nc(N5CCOCC5)cc5ncccc45)CC3)ncc21 [Compound 102, N,N-Dimethyl-2-(9-methyl-2-(((1s,4s)-4-((7-morpholino-1,6-naphthyridin-5-yl)oxy)cyclohexyl)amino)-8-oxo-8,9-dihydro-7H-purin-7-yl)acetamide]"
< 100,< 0.5,"Cn1c(=O)[nH]c2cnc(N[C@H]3CC[C@@H](Oc4nc(N5CCOCC5)cc5ncccc45)CC3)nc21 [Compound 100, 9-Methyl-2-(((1s,4s)-4-((7-morpholino-1,6-naphthyridin-5-yl)oxy)cyclohexyl)amino)-7,9-dihydro-8H-purin-8-one]"
< 100,< 0.5,"CS(=O)(=O)c1cnc2cc(N3CCOCC3)nc(O[C@H]3CC[C@@H](Nc4ncnc5ccoc45)CC3)c2c1 [Compound 204b, N-((1s,4s)-4-((3-(methylsulfonyl)-7-morpholino-1,6-naphthyridin-5-yl)oxy)cyclohexyl)furo[3,2-d]pyrimidin-4-amine]"
< 100,< 0.5,"CN(C)C(=O)Cn1c(=O)n(C2CCOCC2)c2nc(N[C@H]3CC[C@@H](Oc4nc(N5CCOCC5)cc5ncccc45)CC3)ncc21 [Compound 97, N,N-Dimethyl-2-(2-(((1s,4s)-4-((7-morpholino-1,6-naphthyridin-5-yl)oxy)cyclohexyl)amino)-8-oxo-9-(tetrahydro-2H-pyran-4-yl)-8,9-dihydro-7H-purin-7-yl)acetamide]"
